Some test systems named below: A549; DLD-1; HCT-15; HOP-62; HOP-92; HT-29; KM12; MOLT-4; Malme-3M; NCI-H226; NCI-H460; SF-295; SK-MEL-28; SK-OV-3; EKVX; SNB-19; SNB-78; SW-620; CAKI-1; MDA-MB-435.
Common to all, as to experiment: growth of human tumour cells (NCI), 48 h

These results are taken from ChEMBL document CHEMBL1201862, “PubChem BioAssay data set” (2004).

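In this assay, cells in 96-well plates receive the compound at five concentrations for 48 hours. Endpoints are linearly interpolated between the surrounding concentrations. The concentration for 50% growth inhibition is given as GI50.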 The source made the active and inactive calls. Rule as the data show it: active = GI50 up to about 1.1 µM and inactive = higher. Where only a bound is given, the exact number is not on record here.

For the compound `N#C/N=C(/N)NCc1ccccc1`, the GI50 in the test on A549 was > 100 µM (inactive); in the test with DLD-1 it was > 100 µM (inactive); in the test on HCT-15, above 100 µM; in the test on HOP-62 it was > 100 µM (inactive); with HOP-92 it was > 100 µM (inactive); with HT-29, > 100 µM (inactive). Moreover, the GI50 in the test with KM12, in the test with MOLT-4, in the test with Malme-3M, with NCI-H226, with NCI-H460 and with SF-295 was > 100 µM (inactive) in each case. The GI50 in the test on SK-MEL-28 and with SK-OV-3 was > 100 µM (inactive) in each case.

As to `O=C1CCCCCCCCCCC1CN1CCCCC1` (stereo not given), the GI50 in the test with A549 was > 100 µM (inactive); with DLD-1, 54.8 µM (inactive); with EKVX it was > 100 µM (inactive); with HCT-15, 59.8 µM; in the test with HOP-62, > 100 µM (inactive); in the test with HT-29, 35.6 µM (inactive). For the same compound, the GI50 in the test on KM12 is 71.1 µM (inactive); in the test with MOLT-4 it was 57 µM (inactive); with Malme-3M, > 100 µM (inactive); in the test with NCI-H226, 28.2 µM (inactive); in the test on NCI-H460 it was 51.1 µM (inactive); in the test with SF-295, 46.9 µM (inactive). The GI50 in the test on SK-MEL-28 was 41.6 µM (inactive); with SNB-19, > 100 µM (inactive); in the test on SNB-78, > 100 µM (inactive); with SW-620 it was > 100 µM (inactive).

For `CC(Oc1ccc(OCC2CCCCC2)cc1)C(=O)NCc1ccco1` (stereo not given), the GI50 in the test on A549 was 34.9 µM (inactive); with DLD-1, 34.9 µM (inactive); in the test on HCT-15 it was 48.1 µM; in the test with HT-29, 22.1 µM (inactive); in the test with KM12 it was 37.1 µM (inactive); in the test on MOLT-4, 34.9 µM (inactive). The GI50 was 27 µM (inactive) in the test on Malme-3M; 28.8 µM (inactive) in the test on NCI-H226; 48.1 µM (inactive) with NCI-H460; 43.6 µM (inactive) with SK-MEL-28; 98.9 µM (inactive) with SK-OV-3; 74.3 µM (inactive) with SNB-19. For the same compound, the GI50 in the test with SNB-78 is 58.6 µM (inactive).

For the compound `CN(c1ccccc1)c1nc(=[N+]2CCCC2)ss1.[O-][Cl+3]([O-])([O-])[O-]`, the GI50 with A549 was > 100 µM (inactive); in the test on CAKI-1, > 100 µM (inactive); in the test on EKVX it was > 100 µM (inactive); in the test on HCT-15, 87.7 µM; with KM12, > 100 µM (inactive); in the test with MOLT-4, > 100 µM (inactive). Besides, the GI50 was > 100 µM (inactive) in the test with Malme-3M; > 100 µM (inactive) in the test with NCI-H226; 1.85 µM (inactive) with NCI-H460; > 100 µM (inactive) in the test on SK-MEL-28; > 100 µM (inactive) in the test with SK-OV-3; > 100 µM (inactive) with SNB-19. The GI50 in the test on SNB-78 and in the test with SW-620 was > 100 µM (inactive) in each case.

On to `COC(=O)C1(c2ccc(OC)cc2)NC(c2ccccc2)C2C(=O)N(c3ccc(OC)cc3)C(=O)C21` (stereo not given), for which the GI50 in the test on A549 was > 100 µM (inactive); with CAKI-1, > 100 µM (inactive); with DLD-1, > 100 µM (inactive); in the test with EKVX it was > 100 µM (inactive); with HCT-15, above 100 µM; in the test on HT-29, > 100 µM (inactive). The GI50 in the test with KM12, with MOLT-4, with Malme-3M, in the test with NCI-H460, with SF-295 and in the test on SK-MEL-28 was > 100 µM (inactive) throughout. Further, the GI50 in the test with SK-OV-3, with SNB-19, in the test with SNB-78 and in the test on SW-620 was > 100 µM (inactive) each time.

Turning to `COc1cc(OC)cc(Oc2nc3ccccc3nc2C(F)(F)F)c1`, the GI50 in the test on A549 was > 100 µM (inactive); in the test with CAKI-1 it was > 100 µM (inactive); in the test with EKVX, > 100 µM (inactive); with HCT-15, 51.4 µM; with HOP-62 it was 19.3 µM (inactive); in the test on HOP-92, 42 µM (inactive). Further, the GI50 with HT-29 is > 100 µM (inactive); in the test on KM12, > 100 µM (inactive); in the test on MDA-MB-435 it was 3.41 µM (inactive); in the test on MOLT-4, > 100 µM (inactive); in the test with Malme-3M, > 100 µM (inactive); with NCI-H226, > 100 µM (inactive). In addition, the GI50 is > 100 µM (inactive) in the test on NCI-H460; 28.8 µM (inactive) in the test on SF-295; > 100 µM (inactive) in the test on SK-MEL-28; > 100 µM (inactive) with SK-OV-3; 53.7 µM (inactive) with SNB-19; 20.4 µM (inactive) in the test with SW-620.

`CCCC(=O)NC(Nc1ccc(S(=O)(=O)Nc2nc(C)cc(C)n2)cc1)(C(F)(F)F)C(F)(F)F`: the GI50 in the test with A549 was > 100 µM (inactive); with CAKI-1, > 100 µM (inactive); in the test on EKVX, > 100 µM (inactive); with HCT-15 it was above 100 µM; in the test on HOP-62 it was > 100 µM (inactive); in the test with HOP-92 it was > 100 µM (inactive). The GI50 with HT-29, in the test on KM12, in the test on MDA-MB-435, with MOLT-4, in the test with Malme-3M and in the test with NCI-H226 was > 100 µM (inactive) in each case. Also, the GI50 in the test with NCI-H460, with SF-295, in the test with SK-MEL-28, in the test with SK-OV-3, in the test with SNB-19 and in the test with SW-620 was > 100 µM (inactive) throughout.

As to `OC12CCC3(O)c4ccccc4C3C1c1ccccc12` (stereo not given), the GI50 in the test on A549 was > 100 µM (inactive); in the test with EKVX, > 100 µM (inactive); with HCT-15, above 100 µM; in the test on HOP-62, > 100 µM (inactive); in the test on HT-29 it was > 100 µM (inactive); with KM12 it was > 100 µM (inactive). Besides, the GI50 in the test with MOLT-4, with Malme-3M, in the test with NCI-H226, with NCI-H460, in the test on SF-295 and in the test with SK-MEL-28 was > 100 µM (inactive) in each case. In addition, the GI50 in the test on SK-OV-3, with SNB-19, in the test with SNB-78 and in the test on SW-620 was > 100 µM (inactive) throughout.

On to `CC(CCCOC(c1ccccc1)(c1ccccc1)c1ccccc1)OC(=O)Nc1cc([N+](=O)[O-])cc([N+](=O)[O-])c1` (stereo not given), for which the GI50 in the test with A549 was 31.6 µM (inactive); in the test with CAKI-1 it was 18.5 µM (inactive); with DLD-1, 30.1 µM (inactive); in the test on EKVX it was 32 µM (inactive); in the test on HCT-15 it was 32.4 µM; with HOP-62, 27.4 µM (inactive). In addition, the GI50 in the test with HT-29 is 28.2 µM (inactive); in the test on KM12, 32.1 µM (inactive); in the test with MOLT-4, 28.8 µM (inactive); in the test on Malme-3M, 27.6 µM (inactive); in the test on NCI-H460, 24.5 µM (inactive); in the test with SF-295, 27 µM (inactive). For the same compound, the GI50 with SK-MEL-28 was 28.2 µM (inactive); with SK-OV-3 it was 14.8 µM (inactive); with SNB-19, 57.5 µM (inactive); in the test on SW-620, 33.5 µM (inactive).

In the case of `CNC(=O)C1CCC(=O)N1CN(C(C)=O)c1ccccc1` (stereo not given), the GI50 with A549 was > 100 µM (inactive); with CAKI-1 it was > 100 µM (inactive); in the test with EKVX it was > 100 µM (inactive); in the test with HCT-15, above 100 µM; in the test on HOP-62, > 100 µM (inactive); in the test on HOP-92, > 100 µM (inactive). Also, the GI50 in the test on HT-29, in the test on KM12, in the test on MDA-MB-435, with MOLT-4, in the test with Malme-3M and in the test with NCI-H226 was > 100 µM (inactive) throughout. For the same compound, the GI50 with NCI-H460, in the test with SF-295, in the test with SK-MEL-28, in the test on SK-OV-3, in the test with SNB-19 and with SW-620 was > 100 µM (inactive) in each case.

`CC(=O)Oc1ccc(-c2nnc(-c3ccc(OC(C)=O)cc3)nn2)cc1`: the GI50 in the test with A549 is > 100 µM (inactive); with CAKI-1 it was > 100 µM (inactive); with EKVX, 70.5 µM (inactive); with HCT-15, 51.4 µM; in the test on HOP-62, > 100 µM (inactive); in the test with HOP-92 it was > 100 µM (inactive). Moreover, the GI50 in the test on HT-29, with KM12, with MDA-MB-435, in the test on MOLT-4, with Malme-3M and with NCI-H226 was > 100 µM (inactive) in each case. The GI50 in the test on NCI-H460, with SF-295, in the test on SK-MEL-28, in the test with SK-OV-3, in the test with SNB-19 and with SW-620 was > 100 µM (inactive) each time.

In the case of `CCC1(C)C=Cc2c(cc(O)c3c(=O)c4ccccc4n(C)c23)O1` (stereo not given), the GI50 with A549 was > 10 µM (inactive); with CAKI-1 it was 3.26 µM (inactive); with EKVX, > 10 µM (inactive); with HCT-15, above 10 µM; with HOP-62, > 10 µM (inactive); with HOP-92, > 10 µM (inactive). Further, the GI50 with HT-29, in the test on KM12, with MDA-MB-435, with MOLT-4, in the test on Malme-3M and with NCI-H226 was > 10 µM (inactive) in each case. For the same compound, the GI50 with NCI-H460, in the test with SF-295, with SK-MEL-28, in the test on SK-OV-3, in the test on SNB-19 and in the test on SW-620 was > 10 µM (inactive) each time.
